Test results as given in US20170050957A1, “4-AMINO-6-(HETEROCYCLIC)PICOLINATES AND 6-AMINO-2-(HETEROCYCLIC)PYRIMIDINE-4-CARBOXYLATES AND THEIR USE AS HERBICIDES” (Dow AgroSciences LLC, priority 2013, published 2017).
Like-named read-outs stand apart in the source and are kept apart here.

Assays:
[1] = system: Key Grass and Sedge Weeds as well as Grass Crops; experiment: Post-emergent Test II herbicidal activity (Table 16); format: in vivo; conditions: post-emergence, 336 h, 14 d; for pest or weed control at 35 g/ha: 35 g ai/ha; for pest or weed control at 70 g/ha: 70 g ai/ha; for pest or weed control at 140 g/ha: 140 g ai/ha
Procedure, shortened: (§1)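 Visual injury rating (0 = none, 100 = complete kill) taken 14 d after treatment, relative to untreated plants. Compounds in acetone/DMSO with crop oil concentrate and Triton X-155 were track-sprayed at 187 L/ha onto seedlings at the first-second true leaf stage.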

[2] = system: Key Broadleaf Weed and Crop Species; experiment: Post-emergent Test II herbicidal activity (Table 15); format: in vivo; conditions: post-emergence, 336 h, 14 d; for pest or weed control at 35 g/ha: 35 g ai/ha; for pest or weed control at 70 g/ha: 70 g ai/ha; for pest or weed control at 140 g/ha: 140 g ai/ha
Procedure, shortened: as §1

[3] = Cyperus esculentus, yellow nutsedge (Cyperus esculentus), read-out: Visual Growth Reduction (%) 14 Days After Application, CYPES
[4] = Echinochloa crus-galli, barnyardgrass (Echinochloa crus-galli), read-out: Visual Growth Reduction (%) 14 Days After Application, ECHCG
[5] = Oryza sativa, rice (Oryza sativa), read-out: Visual Growth Reduction (%) 14 Days After Application, ORYSA
[6] = Setaria faberi, giant foxtail (Setaria faberi), read-out: Visual Growth Reduction (%) 14 Days After Application, SETFA
[7] = Triticum aestivum, wheat, spring (Triticum aestivum), read-out: Visual Growth Reduction (%) 14 Days After Application, TRZAS
[8] = Zea mays, maize, corn (Zea mays), read-out: Visual Growth Reduction (%) 14 Days After Application, ZEAMX
[9] = Abutilon theophrasti, velvetleaf (Abutilon theophrasti), read-out: Visual Growth Reduction (%) 14 Days After Application, ABUTH
[10] = Amaranthus retroflexus, redroot pigweed (Amaranthus retroflexus), read-out: Visual Growth Reduction (%) 14 Days After Application, AMARE
[11] = Brassica napus, oilseed rape, canola (Brassica napus), read-out: Visual Growth Reduction (%) 14 Days After Application, BRSNN
[12] = Chenopodium album, lambsquarters (Chenopodium album), read-out: Visual Growth Reduction (%) 14 Days After Application, CHEAL
[13] = Euphorbia heterophylla, wild poinsettia (Euphorbia heterophylla), read-out: Visual Growth Reduction (%) 14 Days After Application, EPHHL
[14] = Helianthus annuus, sunflower (Helianthus annuus), read-out: Visual Growth Reduction (%) 14 Days After Application, HELAN

COC(=O)c1nc(-c2cccc3[nH]ccc23)c(F)c(N)c1Cl [Compound 1.40]
pest or weed control at 35 g/ha [1, 3]: 0 to 29%
pest or weed control at 70 g/ha [1, 3]: 0 to 29%
pest or weed control at 140 g/ha [1, 3]: 0 to 29%
pest or weed control at 35 g/ha [1, 4]: 0 to 29%
pest or weed control at 70 g/ha [1, 4]: 0 to 29%
pest or weed control at 140 g/ha [1, 4]: 0 to 29%
pest or weed control at 35 g/ha [1, 5]: 0 to 29%
pest or weed control at 70 g/ha [1, 5]: 0 to 29%
pest or weed control at 140 g/ha [1, 5]: 0 to 29%
pest or weed control at 35 g/ha [1, 6]: 0 to 29%
pest or weed control at 70 g/ha [1, 6]: 0 to 29%
pest or weed control at 140 g/ha [1, 6]: 0 to 29%
pest or weed control at 35 g/ha [1, 7]: 0 to 29%
pest or weed control at 70 g/ha [1, 7]: 0 to 29%
pest or weed control at 140 g/ha [1, 7]: 0 to 29%
pest or weed control at 35 g/ha [1, 8]: 0 to 29%
pest or weed control at 70 g/ha [1, 8]: 0 to 29%
pest or weed control at 140 g/ha [1, 8]: 0 to 29%
melting point: 233 to 236 °C
pest or weed control at 35 g/ha [2, 9]: 0 to 29%
pest or weed control at 70 g/ha [2, 9]: 0 to 29%
pest or weed control at 140 g/ha [2, 9]: 0 to 29%
pest or weed control at 70 g/ha [2, 10]: 95 to 100%
pest or weed control at 35 g/ha [2, 11]: 0 to 29%
pest or weed control at 70 g/ha [2, 11]: 0 to 29%
pest or weed control at 140 g/ha [2, 11]: 0 to 29%
pest or weed control at 35 g/ha [2, 12]: 0 to 29%
pest or weed control at 70 g/ha [2, 12]: 0 to 29%
pest or weed control at 140 g/ha [2, 12]: 0 to 29%
pest or weed control at 35 g/ha [2, 13]: 0 to 29%
pest or weed control at 70 g/ha [2, 13]: 0 to 29%
pest or weed control at 140 g/ha [2, 13]: 0 to 29%
pest or weed control at 35 g/ha [2, 14]: 0 to 29%
pest or weed control at 70 g/ha [2, 14]: 30 to 44%
pest or weed control at 140 g/ha [2, 14]: 45 to 59%

COC(=O)c1nc(-c2ccc(Cl)c3[nH]ccc23)cc(N)c1Cl [Compound 1.44]
pest or weed control at 35 g/ha [1, 3]: 0 to 29%
pest or weed control at 70 g/ha [1, 3]: 0 to 29%
pest or weed control at 140 g/ha [1, 3]: 0 to 29%
pest or weed control at 35 g/ha [1, 4]: 0 to 29%
pest or weed control at 70 g/ha [1, 4]: 0 to 29%
pest or weed control at 140 g/ha [1, 4]: 0 to 29%
pest or weed control at 35 g/ha [1, 5]: 0 to 29%
pest or weed control at 70 g/ha [1, 5]: 0 to 29%
pest or weed control at 140 g/ha [1, 5]: 0 to 29%
pest or weed control at 35 g/ha [1, 6]: 0 to 29%
pest or weed control at 70 g/ha [1, 6]: 0 to 29%
pest or weed control at 140 g/ha [1, 6]: 0 to 29%
pest or weed control at 35 g/ha [1, 7]: 0 to 29%
pest or weed control at 70 g/ha [1, 7]: 0 to 29%
pest or weed control at 140 g/ha [1, 7]: 0 to 29%
pest or weed control at 35 g/ha [1, 8]: 0 to 29%
pest or weed control at 70 g/ha [1, 8]: 0 to 29%
pest or weed control at 140 g/ha [1, 8]: 0 to 29%
melting point: 116 °C
pest or weed control at 35 g/ha [2, 9]: 0 to 29%
pest or weed control at 70 g/ha [2, 9]: 75 to 84%
pest or weed control at 140 g/ha [2, 9]: 85 to 94%
pest or weed control at 35 g/ha [2, 10]: 85 to 94%
pest or weed control at 70 g/ha [2, 10]: 95 to 100%
pest or weed control at 140 g/ha [2, 10]: 95 to 100%
pest or weed control at 35 g/ha [2, 11]: 0 to 29%
pest or weed control at 70 g/ha [2, 11]: 0 to 29%
pest or weed control at 140 g/ha [2, 11]: 30 to 44%
pest or weed control at 35 g/ha [2, 12]: 85 to 94%
pest or weed control at 70 g/ha [2, 12]: 85 to 94%
pest or weed control at 140 g/ha [2, 12]: 95 to 100%
pest or weed control at 35 g/ha [2, 13]: 45 to 59%
pest or weed control at 70 g/ha [2, 13]: 75 to 84%
pest or weed control at 140 g/ha [2, 13]: 85 to 94%
pest or weed control at 35 g/ha [2, 14]: 0 to 29%
pest or weed control at 70 g/ha [2, 14]: 0 to 29%
pest or weed control at 140 g/ha [2, 14]: 0 to 29%
